Experimental data from patent US20230071222A1, “METHOD FOR PREPARING FIBROSIS-ENCAPSULATED TUMOROID, AND USE THEREOF” (INDUSTRY-ACADEMIC COOPERATION FOUNDATION, YONSEI UNIVERSITY, priority 2020, published 2023).

System: fibrosis-encapsulated tumoroid (FET)
Assay: Anticancer drug resistance test of fibrosis-encapsulated tumoroid (cell viability measurement)
Assay type: cell-based, human
Conditions: cisplatin, 100 µM; fibrosis-encapsulated tumoroid (FET) compared to the simple tumoroid (tumor only); FIG. 10B
Description: The present inventors performed a drug resistance test in order to evaluate whether it was possible to select drugs, which can be effective in the clinical stage, using the fibrosis-encapsulated tumoroid which is a solid cancer tissue analogue produced by the methods of Examples 1 to 4 (see FIGS. 10A and 10B). […] The drug test was conducted through cell viability measurement. The cell viability of each of the group containing the anticancer drug and the control group not containing the anticancer drug was measured after replacing the medium with maintenance medium. […] The cell viability of the solid cancer tissue analogue was measured using Promega’s CellTiter-Glo luminescent cell viability assay as another measurement method, and the death of cancer cells by the anticancer drug could be indirectly confirmed by comparison with the control group. […] The fibrosis-encapsulated tumoroid produced as described above mimicked a series of processes in which the anticancer agent passes sequentially through the blood vessel wall and fibrotic tissue and reaches cancer tissue, in the same way as in the human body. Thus, it is preferable to finally produce the eFET and conduct an anticancer drug test using the eFET, but only the FET may be selectively used in order to reduce cost or time. […]

N.N.[Cl][Pt][Cl] [cisplatin]
resistance to the anticancer drug (cell viability): statistically significant resistance
